Assay results reported in patent US20250332223A1, “GHRH ANTAGONISTS FOR USE IN A METHOD OF TREATING SARCOIDOSIS” (University of Miami, priority 2019, published 2025).
“Also recorded” adds a separate entry of the source.

Experiments:
[1] = tested on: mouse model of pulmonary sarcoidosis; test: Mouse model of pulmonary sarcoidosis, lung inflammation grading (Example 1); format: in vivo, C57B1/6 mice; settings: sarcoidosis mice, treated two weeks, vs saline-treated sarcoidosis group; MIA-602 5 μg/day intraperitoneal; FIGS. 1A-E
Method: Granulomatous reaction in the mouse lung was developed as previously described (Zhang et al., Front Immunol 2019; 10: 2888).
(§1) The detail of the methodology used for confocal microscopy is discussed in Zhang et al., Front Immunol 2019; 10: 2888. To summarize, mice were killed on day 14, and the left lungs were harvested. Lungs were filled with 10% buffered formalin and fixed in formalin for at least 72 h before IHC staining. H&E staining was used to determine inflammatory pathology.
(§2) Lung inflammation was scored using the three fields with the highest infiltrate's intensity at 100× power magnification as previously described (Zhang et al., Front Immunol 2019; 10: 2888). The area of inflammation was measured and averaged for the three examined high-power fields.
A mouse model of pulmonary sarcoidosis was established in C57B1/6 mice by administering microparticles intratracheally. The tongue was pulled out with a small spatula and microparticles were inserted into the trachea using a 20 G angio-catheter tube at the time of laryngeal opening and advanced to main bronchus until reach to resistant. After tube placement, microparticles were administered: a first dose of 5×10^8 CFU of M. abscessus in 50 μL with three subsequent doses of 2×10^8 CFU of M. abscessus in 20 μL. A control group received only 20 μL PBS intratracheally. Mice receiving microparticles developed noncaseating granuloma in the lung, as observed use H&E staining and immunohistochemistry staining for CD68 macrophage marker, CD4 marker, and PD-L1.
The first sarcoidosis group received MIA-602 (5 μg/day), administered via intraperitoneal injection. The second sarcoidosis group received α-melanocyte stimulating hormone (α-MSH), the third sarcoidosis group received steroid treatment (methyl-prednisone, the current first line treatment for sarcoidosis), and the fourth group received only saline. Mice were sacrificed after two weeks, and inflammation in lung samples was graded.

sarcoidosis mice model [2] = test: RNASeq transcriptomics of lung in sarcoidosis mice model (Example 7); format: in vivo; settings: granuloma mice, daily MIA-602 5 μg intraperitoneal vs saline
Method: RNA from mouse lungs were extracted using RNA Miniprep Plus Kit (Zymo Research). Briefly, whole lung was homogenized in TRI reagent and total RNA extraction was performed following the instructions provided by the manufacturer with additional DNase treatment. Quantity and quality of the samples were determined by NanoDrop spectrophotometer and Agilent Bioanalyzer 2100, respectively (Zhang et al., Front Immunol 2019; 10: 2888).
Preparation and sequencing of RNA libraries was performed. Briefly, total RNA quantity and quality were determined using the Agilent Bioanalyzer. At least 300 ng of total RNA was used as input for the KAPA RNA HyperPrep Kit with RiboErase (HMR) according to manufacturer's protocol to create ribosomal RNA-depleted sequencing libraries. Sequencing was performed on the Illumina NextSeq 500, generating ˜40 million single-end 75 base reads per sample. Sequencing data were processed with a bioinformatics pipeline including quality control, alignment to the […], and gene quantification. Count data was inputted into edgeR software for differential expression analysis. Counts were normalized using the trimmed mean of M-values (TMM) method to account for compositional difference between the libraries and paired differential expression analysis using a generalized linear model with sample as a blocking factor. […]

sarcoidosis mice model [3] = test: Flow cytometry of lung single cells in sarcoidosis mice model (Example 5); format: in vivo; settings: MIA-602 5 μg, two weeks
Method: Mice were sacrificed on day 14, and the left lungs were harvested for pathology after perfusing the right ventricle with 10 ml of PBS.
The upper half of left lung tissue (without trachea, main bronchus and branches) was removed and rinsed by PBS to clean off blood. The tissue was minced and dispersed with a scissors to increase total surface area. To develop single cell suspension, the rubber end of a 5 ml plastic syringe was used to mesh cells through a 100 μm cell strainer with continuous rinse using ice-cold RPMI 1640. Cell suspension was again meshed through a 70 μm cell strainer and rinsed thoroughly with 3 ml of washing buffer containing DNAse followed by 15 ml of DNAse-free washing buffer. The sample was centrifuged at 286×g and 18° C. for 5 min, and the supernatant was discarded (Posel et al. J Vis Exp 2016: 53658).
The cells (10^6 cells/ml) were resuspended in 100 μl protein blocking solution with 5 μl fluorescent conjugated antibodies, CD8 (Biolegend Cat #100714, CD45 (Biolegend Cat #103130), CD68 (Biolegend Cat #137004), PD-1 (Biolegend Cat #135219), PD-L1 (Biolegend Cat #124308), CD4 (Biolegend Cat #100510), CD11b (Biolegend Cat #101243), CD11c (Biolegend Cat #117318), F4/80 (Biolegend Cat #123146), or IFNg (Biolegend Cat #505836). Samples were analyzed on a BD LSR II flow cytometer using BD FACSDiva software, and data analysis was performed using Flowjo software (TreeStar, Ashland, OR). Cell populations were identified using sequential gating strategy; the expression of activation markers was presented as median fluorescence intensity. Lung immune cells were classified based on FC marker expression as previously described (Misharin et al., Am J Respir Cell Mol Biol 2013; 49: 503-510).
Mice were grouped as control, challenged with microparticles and treated with saline, challenged and treated with MIA-602 (5 μg), and challenged and treated with methyl prednisolone (100 μg). After two weeks, lungs were harvested from all groups, and lung single cells were generated for flow cytometry analysis.

[4] = tested on: mouse pulmonary granulomatous model; test: Mouse pulmonary granulomatous model, H&E and IHC scoring of lung (Example 4); format: in vivo, C57B1/6 mice
Method: as §1
(§3) For immunohistochemistry, 5-μm paraffin sections were processed by deparaffinization and rehydration followed by endogenous peroxidase blocking (1% H2O2 in methanol for 20 minutes) and antigen retrieval (boiled in 10 mM citrate buffer for 30 minutes). Tissue sections were blocked with 2% goat or horse serum (Vector Laboratories) and incubated with antibody CD68 (Proteintech, Cat #25747-1-AP), PD-1 (Cell Signaling, cat #84651), PD-L1 (Proteintech, Cat #17952-1-AP), CD30 (Lsbio, cat #LS-c162069) CD3 (Cell Signaling, cat #99940), iNOS (Invitrogen, cat #PAI-036), or Nitrotyrosine (Novus, NBP2-54606) over night at 4° C., washed with TBST five times, then exposed to secondary antibodies (Vector Laboratories, cat #PI-2000). Immunoreactivity was detected using the ABC Elite kit (Vector Laboratories). DAB was used as final chromogen and hematoxylin as the nuclear counterstain. Negative controls for all antibodies were made by replacing the primary antibody with non-immunogen IgG.
as §2
A mouse pulmonary granulomatous model was established for studying type I IFN pathways after exposure to M. abscessus cell wall. The model is applicable for pulmonary sarcoidosis studies due to its characteristics of noninfectious lung granulomatous model. C57B1/6 mice were used to develop the model (Zhang et al., Front Immunol 2019; 10: 2888).
Mice were treated with 5 μg of a peptide of the disclosure, MIA-602, per day via intraperitoneal injection. After two weeks, the mice were sacrificed, and lung inflammation was graded by a lung pathologist. Lung samples were stained with H&E, CD68, PD1, PD-L1, and CD30, and scored based on percentage of cells expressing each marker.

[5] = tested on: granuloma (PBMC challenged with microparticles); test: Cytokine production in in vitro granuloma from PBMC of sarcoidosis subjects, multiplex ELISA (Example 2); format: cell-based, human; settings: 1 microM MIA-602, 48 h, media
Method: In vitro granuloma was developed by challenging PBMC with microparticles as previously described (Zhang et al., Sci Rep 2020; 10: 7277).
To measure cytokines in media, supernatant aliquot samples were analyzed, thawed, and spun at 12,000 rpm for 10 min to separate the particulate material at the bottom. Fifty μl of undiluted media was plated from each sample onto a 96-well V-bottom plate (source plate) by manual pipetting according to predefined maps. The aliquots were wrapped in parafilm and kept in a humid chamber at 4° C. during the entire process, but not longer than 72 hr. Growth factors and their receptor's capture antibodies were reconstituted and diluted per manufacturer specification and 50 μl plated into each well of respective 96-well high-binding half-well plates, which were then sealed and incubated overnight at 4° C. The cytokine levels were measured using a procartaplex human th1/th2 cytokine panel 11 plex from Invitrogen, (epx110-10810-901).
Granuloma and PBMC were collected from five sarcoidosis subjects. The samples were grouped as control (not challenged), granuloma group challenged with a 10:1 treatment with microparticles but left untreated, challenged granuloma group treated with 1 microM MIA-602 in vitro, and challenged granuloma group treated with methyl prednisolone in vitro. Media were removed 48 h after of treatments. Cytokines were measured using an multiplex ELISA instrument.

[6] = tested on: in vitro granuloma model (PBMCs challenged with microparticles); test: Pro- and anti-apoptotic protein levels in in vitro granuloma model (Example 3); format: cell-based, human; settings: 1 μM MIA-602, 48 h
Method: In vitro granuloma was developed by challenging PBMC with microparticles as previously described (Zhang et al., Sci Rep 2020; 10: 7277). (Zhang et al., Sci Rep 2020; 10: 7277), PBMCs were lysed in lysis buffer (Cell Signaling Technology, Beverly, MA) with protease inhibitor cocktail (Cell Signaling Technology, Beverly, MA) and sonicated three times for 2 seconds each with at least 1-min rest on ice between each 2-s pulse. Samples were centrifuged at 10,000×g for 5 min at 4° C. and the supernatant was collected. Protein concentration was determined by BCA protein assay kit from Cell Signaling Technology. The methodology is further described in .Zhang et al., Sci Rep 2020; 10: 7277. Thirty micrograms of total protein were mixed in a reducing sample buffer and used for mitochondrial apoptosis assay per the kit instruction. The assay was performed using a Bio-Rad kit (171-WAR3CK). The ability of a peptide of the disclosure, MIA-602, to influence respiration and apoptosis in granuloma cells was examined. The specific processes of apoptosis and mitochondrial dynamics in granuloma have not been fully elucidated. To test if MIA-602 had pro- or anti-apoptotic effects, the protein levels of pro-(active caspase-3) and anti-apoptotic factors (survivin, Bcl-xL/Bak dimer, and Mcl-1/Bak dimer) were measured in an in vitro granuloma model. […] Media were removed 48 h after treatment.

sarcoidosis mice model [7] = test: NOS2 and nitrotyrosine staining of lung in sarcoidosis mice model (Example 6); format: in vivo; settings: daily intraperitoneal MIA-602 5 μg, lung harvested after three weeks
Method: as §3
Inducible nitric oxide synthases (iNOS) produces nitric oxide and has a crucial role in granuloma development. iNOS is expressed in macrophages after exposure to bacterial lipopolysaccharides and IFNγ (Facchetti et al., Am J Pathol 1999; 154: 145-152). […] Lung tissue was harvested after three weeks and tissue stained with NOS2 and nitrotyrosine. […] The finding was not statistically significant.

Compound: C[C@H]1C[C@@H]2[C@H]([C@@H](O)C[C@@]3(C)[C@H]2CC[C@]3(O)C(=O)COC(=O)CCC(=O)[O-])[C@@]2(C)C=CC(=O)C=C12.[Na+] [methyl-prednisone]
- inflammation in lung samples (inflammation score) [1]: did not affect inflammation

Compound: [PhAc-Ada^0-Tyr^1, D-Arg^2, Fpa5^6, Ala^8, Har^9, Tyr(Me)^10, His^11, Orn^12, Abu^15, His^20, Orn^21, Nle^27, D-Arg^28, Har^29]hGH-RH(1-29)NH2 [MIA-602]
- genes downregulated (sarcoidosis mice model [2]): 293 genes
- genes upregulated (sarcoidosis mice model [2]): 778 genes
- population of CD45+CD68 cells (sarcoidosis mice model [3]; FIG. 6A): significantly reduced
- percentage of CD45+CD68+ cells that expressed PD-1 (sarcoidosis mice model [3]; FIG. 6B): significantly increased
- population of CD45+CD68+PD-L1 cells (sarcoidosis mice model [3]; FIG. 6C): a higher percentage was detected
- inflammation in lung samples (inflammation score) [1]: lower inflammation scores
- lung inflammation score ([4]; 5 μg MIA-602 per day intraperitoneal, two weeks, vs granuloma group, H&E): lower inflammation scores; also recorded: almost normalized
- CD30 cells in lung ([4]; 5 μg MIA-602 per day intraperitoneal, two weeks, IHC): nonsignificantly reduced
- percentage of CD68+ cells in the lung ([4]; 5 μg MIA-602 per day intraperitoneal, two weeks, IHC, changes not statistically significant): decreased
- PD-1+ cells in the lung ([4]; 5 μg MIA-602 per day intraperitoneal, two weeks, IHC, same pattern as CD68+ (increased in granuloma, decreased with MIA-602, not significant)): This pattern was seen
- inflammatory cell numbers in lung tissue ([4]; summary of animal model study): reduced inflammatory cell numbers significantly
- cytokine production of CCL2 [5]: significantly reduced
- cytokine production of CCL5 [5]: significantly reduced
- cytokine production of CXCL9 [5]: significantly reduced
- cytokine production of IFNα [5]: significantly reduced
- cytokine production of IL2 [5]: significantly reduced
- cytokine production of IL7 [5]: significantly reduced
- cytokine production of IL10 [5]: significantly reduced
- cytokine production of IL12 [5]: significantly reduced
- cytokine production of IL15 [5]: significantly reduced
- cytokine production of IL17A [5]: significantly reduced
- survivin levels ([6]; FIG. 3A): no statistical difference between groups
- active caspase 3 level ([6]; FIG. 3D): further increased
- level of Mcl-1/Bak dimer ([6]; reduced in untreated granuloma, FIG. 3B): restored
- BclxL/Bak Dimer levels ([6]; vs granuloma treated with saline, FIG. 3C): increased
- NOS2 expression (sarcoidosis mice model [7]; FIG. 7): reduced following MIA-602 treatment. The finding was not statistically significant
- nitrotyrosine levels (sarcoidosis mice model [7]; FIG. 8): reduced the nitrotyrosine levels, but the reduction was not statistically significant

Compound: α-melanocyte stimulating hormone [a-MSH]
- inflammation in lung samples (inflammation score) [1]: lower inflammation scores
